Literature values, collected in patent US20030190360A1, “Chronotherapeutic dosage forms containing glucocorticosteroid and methods of treatment” (priority 2001, published 2003).

Settings: equivalent doses of glucocorticoids

In order of falling “Approximate Equivalent Dose” value:
1. C[C@]12CCC(=O)C=C1CC[C@@H]1[C@@H]2C(=O)C[C@@]2(C)[C@H]1CC[C@]2(O)C(=O)CO [Cortisone]  25 mg
2. C[C@]12CCC(=O)C=C1CC[C@@H]1[C@@H]2[C@@H](O)C[C@@]2(C)[C@H]1CC[C@]2(O)C(=O)CO [Hydrocortisone]  20 mg
3. C[C@]12C=CC(=O)C=C1CC[C@@H]1[C@@H]2[C@@H](O)C[C@@]2(C)[C@H]1CC[C@]2(O)C(=O)CO [Prednisolone]  5 mg
4. C[C@]12C=CC(=O)C=C1CC[C@H]1[C@@H]3C[C@@H](O)[C@](O)(C(=O)CO)[C@@]3(C)C[C@H](O)[C@@]12F [Triamcinolone]  4 mg
